Test results as given in PubChem BioAssay (NCI).
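Values below derive from 48-hour exposures of cells grown in 96-well plates, with endpoints linearly interpolated between the two concentrations bracketing the appropriate inhibition level. GI50 is the concentration that inhibits growth by half. The concentration for full growth arrest is given as TGI.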

How the values were obtained:
Assay in all cases: inhibition of tumour cell growth, NCI panel, 48 h
SK-MEL-5 melanoma = test system: SK-MEL-5 melanoma
OVCAR-5 ovarian = test system: OVCAR-5 ovarian
UO-31 renal = test system: UO-31 renal
HOP-92 NSCLC = test system: HOP-92 NSCLC
NCI-H460 lung = test system: NCI-H460 lung
SK-MEL-28 melanoma = test system: SK-MEL-28 melanoma
HCT-116 colon = test system: HCT-116 colon
HCT-15 colon = test system: HCT-15 colon
MOLT-4 leukemia = test system: MOLT-4 leukemia
NCI-H522 lung = test system: NCI-H522 lung
A498 renal = test system: A498 renal
CCRF-CEM leukemia = test system: CCRF-CEM leukemia
HCC-2998 colon = test system: HCC-2998 colon
RXF 393 renal = test system: RXF 393 renal
UACC-257 melanoma = test system: UACC-257 melanoma
HL-60(TB) leukemia = test system: HL-60(TB) leukemia
A549 NSCLC = test system: A549 NSCLC
SN12C renal = test system: SN12C renal
SR leukemia = test system: SR leukemia
HS 578T breast = test system: HS 578T breast
K-562 leukemia = test system: K-562 leukemia
786-0 renal = test system: 786-0 renal
HT29 colon = test system: HT29 colon
MDA-MB-231 breast = test system: MDA-MB-231 breast
MCF7 breast = test system: MCF7 breast
NCI-H226 lung = test system: NCI-H226 lung
SK-OV-3 ovarian = test system: SK-OV-3 ovarian
MDA-MB-435 = test system: MDA-MB-435
KM12 colon = test system: KM12 colon
EKVX NSCLC = test system: EKVX NSCLC
LOX IMVI melanoma = test system: LOX IMVI melanoma
RPMI-8226 leukemia = test system: RPMI-8226 leukemia
OVCAR-4 ovarian = test system: OVCAR-4 ovarian
OVCAR-3 ovarian = test system: OVCAR-3 ovarian
UACC-62 melanoma = test system: UACC-62 melanoma
PC-3 prostate = test system: PC-3 prostate
BT-549 breast = test system: BT-549 breast
COLO 205 colon = test system: COLO 205 colon
SF-268 CNS = test system: SF-268 CNS
ACHN renal = test system: ACHN renal
U251 CNS = test system: U251 CNS
M14 melanoma = test system: M14 melanoma
SF-295 CNS = test system: SF-295 CNS
IGROV1 ovarian = test system: IGROV1 ovarian
SW-620 colon = test system: SW-620 colon
T-47D breast = test system: T-47D breast
SK-MEL-2 melanoma = test system: SK-MEL-2 melanoma
MALME-3M melanoma = test system: MALME-3M melanoma
OVCAR-8 ovarian = test system: OVCAR-8 ovarian
NCI-H23 lung = test system: NCI-H23 lung
SF-539 CNS = test system: SF-539 CNS
HOP-62 NSCLC = test system: HOP-62 NSCLC
NCI/ADR-RES ovarian = test system: NCI/ADR-RES ovarian
TK-10 renal = test system: TK-10 renal
SNB-75 CNS = test system: SNB-75 CNS
SNB-19 CNS = test system: SNB-19 CNS

CC[C@H](C)[C@H]1NC(=O)[C@@H]([C@H](O)C(C)C)NC(=O)[C@@H](C)N(C)C(=O)[C@H](C)N(C)C(=O)[C@H](CC(C)C)NC(=O)[C@H](CC(C)C)N(C)C(=O)[C@H](C)N(C)C1=O
GI50 (SK-MEL-5 melanoma): 516 nM | TGI (SK-MEL-5 melanoma): > 14.3 µM | GI50 (OVCAR-5 ovarian): 367 nM | TGI (OVCAR-5 ovarian): 13.3 µM | GI50 (UO-31 renal): 383 nM | TGI (UO-31 renal): > 14.3 µM | GI50 (HOP-92 NSCLC): 397 nM | TGI (HOP-92 NSCLC): 12.1 µM | GI50 (NCI-H460 lung): 170 nM | TGI (NCI-H460 lung): 2240 nM | GI50 (SK-MEL-28 melanoma): 223 nM | TGI (SK-MEL-28 melanoma): 1760 nM | GI50 (HCT-116 colon): 198 nM | TGI (HCT-116 colon): > 14.3 µM | GI50 (HCT-15 colon): 538 nM | TGI (HCT-15 colon): > 14.3 µM | GI50 (MOLT-4 leukemia): 512 nM | TGI (MOLT-4 leukemia): > 14.3 µM | GI50 (NCI-H522 lung): 329 nM | TGI (NCI-H522 lung): 4.7 µM | GI50 (A498 renal): 468 nM | TGI (A498 renal): 5.33 µM | GI50 (CCRF-CEM leukemia): 562 nM | TGI (CCRF-CEM leukemia): > 14.3 µM | GI50 (HCC-2998 colon): 531 nM | TGI (HCC-2998 colon): > 14.3 µM | GI50 (RXF 393 renal): 256 nM | TGI (RXF 393 renal): 1900 nM | GI50 (UACC-257 melanoma): 451 nM | TGI (UACC-257 melanoma): > 14.3 µM | GI50 (HL-60(TB) leukemia): 995 nM | TGI (HL-60(TB) leukemia): > 14.3 µM | GI50 (A549 NSCLC): 257 nM | TGI (A549 NSCLC): > 14.3 µM | GI50 (SN12C renal): 221 nM | TGI (SN12C renal): > 14.3 µM | GI50 (SR leukemia): 526 nM | TGI (SR leukemia): > 14.3 µM | GI50 (HS 578T breast): 261 nM | TGI (HS 578T breast): 4.75 µM | GI50 (K-562 leukemia): 547 nM | TGI (K-562 leukemia): > 14.3 µM | GI50 (786-0 renal): 267 nM | TGI (786-0 renal): > 14.3 µM | GI50 (HT29 colon): 257 nM | TGI (HT29 colon): > 14.3 µM | GI50 (MDA-MB-231 breast): 507 nM | TGI (MDA-MB-231 breast): > 14.3 µM | GI50 (MCF7 breast): 192 nM | TGI (MCF7 breast): > 14.3 µM | GI50 (NCI-H226 lung): 456 nM | TGI (NCI-H226 lung): 12.4 µM | GI50 (SK-OV-3 ovarian): 418 nM | TGI (SK-OV-3 ovarian): 11.1 µM | GI50 (MDA-MB-435): 376 nM | TGI (MDA-MB-435): > 14.3 µM | GI50 (KM12 colon): 326 nM | TGI (KM12 colon): > 14.3 µM | GI50 (EKVX NSCLC): 341 nM | TGI (EKVX NSCLC): > 14.3 µM | GI50 (LOX IMVI melanoma): 416 nM | TGI (LOX IMVI melanoma): > 14.3 µM | GI50 (RPMI-8226 leukemia): 446 nM | TGI (RPMI-8226 leukemia): 5.97 µM | GI50 (OVCAR-4 ovarian): 409 nM | TGI (OVCAR-4 ovarian): > 14.3 µM | GI50 (OVCAR-3 ovarian): 390 nM | TGI (OVCAR-3 ovarian): > 14.3 µM | GI50 (UACC-62 melanoma): 331 nM | TGI (UACC-62 melanoma): 4.07 µM | GI50 (PC-3 prostate): 364 nM | TGI (PC-3 prostate): > 14.3 µM | GI50 (BT-549 breast): 436 nM | TGI (BT-549 breast): 8.46 µM | GI50 (COLO 205 colon): 278 nM | TGI (COLO 205 colon): 4.39 µM | GI50 (SF-268 CNS): 276 nM | TGI (SF-268 CNS): > 14.3 µM | GI50 (ACHN renal): 401 nM | TGI (ACHN renal): > 14.3 µM | GI50 (U251 CNS): 265 nM | TGI (U251 CNS): > 14.3 µM | GI50 (M14 melanoma): 274 nM | TGI (M14 melanoma): 3.85 µM | GI50 (SF-295 CNS): 319 nM | TGI (SF-295 CNS): 9.17 µM | GI50 (IGROV1 ovarian): 276 nM | TGI (IGROV1 ovarian): > 14.3 µM | GI50 (SW-620 colon): 327 nM | TGI (SW-620 colon): > 14.3 µM | GI50 (T-47D breast): 164 nM | TGI (T-47D breast): 1150 nM | GI50 (SK-MEL-2 melanoma): 233 nM | TGI (SK-MEL-2 melanoma): 1270 nM | GI50 (MALME-3M melanoma): 286 nM | TGI (MALME-3M melanoma): 10.5 µM | GI50 (OVCAR-8 ovarian): 391 nM | TGI (OVCAR-8 ovarian): > 14.3 µM | GI50 (NCI-H23 lung): 272 nM | TGI (NCI-H23 lung): > 14.3 µM | GI50 (SF-539 CNS): 409 nM | TGI (SF-539 CNS): 4.19 µM | GI50 (HOP-62 NSCLC): 225 nM | TGI (HOP-62 NSCLC): 4.26 µM | GI50 (NCI/ADR-RES ovarian): 2300 nM | TGI (NCI/ADR-RES ovarian): > 14.3 µM | GI50 (TK-10 renal): 276 nM | TGI (TK-10 renal): 9.72 µM | GI50 (SNB-75 CNS): 280 nM | TGI (SNB-75 CNS): > 14.3 µM | GI50 (SNB-19 CNS): 266 nM | TGI (SNB-19 CNS): > 14.3 µM
